Test results from article PMC5218480 (PLoS ONE, 2017).

Tested on: MV-4-11 cells
Assay: Gene expression microarray analysis (Affymetrix PrimeView) and GSEA
Format: cell-based, human
Set-up: RFU PODN (11730768_x_at) / Fold change /veh PODN (11730768_x_at) / RFU LINC00158 (11744669_a_at) / Fold change /veh LINC00158 (11744669_a_at) / RFU DUSP10 (11751237_a_at) / Fold change /veh DUSP10 (11751237_a_at) / RFU ID3 (11757404_x_at) / Fold change /veh ID3 (11757404_x_at) / RFU PLEKHG5 (11737974_s_at) / Fold change /veh PLEKHG5 (11737974_s_at) / RFU LRRC4B (11730491_at) / Fold change /veh LRRC4B (11730491_at) / RFU GIMAP4 (11747438_a_at) / Fold change /veh GIMAP4 (11747438_a_at) / RFU KRT8 (11758183_x_at) / Fold change /veh KRT8 (11758183_x_at) / RFU CNN1 (11734310_a_at) / Fold change /veh CNN1 (11734310_a_at) / RFU VPS37D (11726825_at) / Fold change /veh VPS37D (11726825_at) / RFU C10orf10 (11716522_x_at) / Fold change /veh C10orf10 (11716522_x_at) / RFU KIR2DL2 /// KIR2DL4 /// KIR2DL5A /// KIR2DL5B /// KIR2DS1 /// KIR2DS2 /// KIR2DS3 /// KIR2DS4 /// KIR3DL3 /// KIR3DL3 /// KIR3DS1 (11738374_at) / Fold change /veh KIR2DL2 /// KIR2DL4 /// KIR2DL5A /// KIR2DL5B /// KIR2DS1 /// KIR2DS2 /// KIR2DS3 /// KIR2DS4 /// KIR3DL3 /// KIR3DL3 /// KIR3DS1 (11738374_at) / RFU C1QL1 (11718748_at) / Fold change /veh C1QL1 (11718748_at) / RFU TMPRSS4 (11747572_a_at) / Fold change /veh TMPRSS4 (11747572_a_at) / RFU HAMP (11756126_x_at) / Fold change /veh HAMP (11756126_x_at) / RFU RNFT2 (11725882_a_at) / Fold change /veh RNFT2 (11725882_a_at) / RFU NR4A2 (11747474_a_at) / Fold change /veh NR4A2 (11747474_a_at) / RFU ABCC12 (11746883_a_at) / Fold change /veh ABCC12 (11746883_a_at) / RFU TMEM136 (11760407_x_at) / Fold change /veh TMEM136 (11760407_x_at) / RFU CLDN22 /// WWC2 (11732394_at) / Fold change /veh CLDN22 /// WWC2 (11732394_at) / RFU HLA-DPB1 (11760878_x_at) / Fold change /veh HLA-DPB1 (11760878_x_at) / RFU SPINT1 (11716480_a_at) / Fold change /veh SPINT1 (11716480_a_at) / RFU GAP43 (11754022_s_at) / Fold change /veh GAP43 (11754022_s_at) / RFU A4GNT (11735810_at) / Fold change /veh A4GNT (11735810_at) / RFU PRB3 (11715151_x_at) / Fold change /veh PRB3 (11715151_x_at) / RFU TUBB4B (11761932_at) / Fold change /veh TUBB4B (11761932_at) / RFU CAPN14 (11732068_a_at) / Fold change /veh CAPN14 (11732068_a_at) / RFU TMCC2 (11721928_a_at) / Fold change /veh TMCC2 (11721928_a_at) / RFU IRGQ (11745062_a_at) / Fold change /veh IRGQ (11745062_a_at) / RFU FAM174B (11720279_a_at) / Fold change /veh FAM174B (11720279_a_at) / RFU TMPRSS4 (11748680_a_at) / Fold change /veh TMPRSS4 (11748680_a_at) / RFU FAM212B (11763350_a_at) / Fold change /veh FAM212B (11763350_a_at) / RFU PLEKHG5 (11743358_a_at) / Fold change /veh PLEKHG5 (11743358_a_at) / RFU ZSCAN30 (11745921_a_at) / Fold change /veh ZSCAN30 (11745921_a_at) / RFU CMKLR1 (11741424_a_at) / Fold change /veh CMKLR1 (11741424_a_at) / RFU LOC101060620 /// MAPK8IP1 (11723275_at) / Fold change /veh LOC101060620 /// MAPK8IP1 (11723275_at) / RFU SPTSSB (11747773_x_at) / Fold change /veh SPTSSB (11747773_x_at) / RFU PRSS12 (11739890_at) / Fold change /veh PRSS12 (11739890_at) / RFU BIN1 (11741810_x_at) / Fold change /veh BIN1 (11741810_x_at) / RFU WNT11 (11732464_a_at) / Fold change /veh WNT11 (11732464_a_at) / RFU C10orf10 (11716521_a_at) / Fold change /veh C10orf10 (11716521_a_at) / RFU C5orf56 (11738089_at) / Fold change /veh C5orf56 (11738089_at) / RFU CYB561 (11721691_x_at) / Fold change /veh CYB561 (11721691_x_at) / RFU ANKRD19P (11752326_a_at) / Fold change /veh ANKRD19P (11752326_a_at) / RFU OR2T12 /// OR2T33 /// OR2T8 (11738714_s_at) / Fold change /veh OR2T12 /// OR2T33 /// OR2T8 (11738714_s_at) / RFU VCAN (11748164_a_at) / Fold change /veh VCAN (11748164_a_at) / RFU JSRP1 (11732532_at) / Fold change /veh JSRP1 (11732532_at) / RFU KRTAP10-11 (11738290_x_at) / Fold change /veh KRTAP10-11 (11738290_x_at) / RFU MYO3A (11730013_a_at) / Fold change /veh MYO3A (11730013_a_at) / RFU EBF3 (11725865_a_at) / Fold change /veh EBF3 (11725865_a_at) / RFU CAMK2N1 (11719241_x_at) / Fold change /veh CAMK2N1 (11719241_x_at) / RFU C5orf56 (11738088_a_at) / Fold change /veh C5orf56 (11738088_a_at) / RFU OLFML3 (11715873_a_at) / Fold change /veh OLFML3 (11715873_a_at) / RFU LOC100653217 /// NTM (11731650_a_at) / Fold change /veh LOC100653217 /// NTM (11731650_a_at) / RFU MAPK11 (11762145_a_at) / Fold change /veh MAPK11 (11762145_a_at) / RFU FIZ1 (11724087_x_at) / Fold change /veh FIZ1 (11724087_x_at) / RFU OASL (11726364_x_at) / Fold change /veh OASL (11726364_x_at) / RFU SOX15 (11748057_x_at) / Fold change /veh SOX15 (11748057_x_at) / RFU CD79A (11719716_a_at) / Fold change /veh CD79A (11719716_a_at) / RFU HIST1H1D (11736915_at) / Fold change /veh HIST1H1D (11736915_at) / RFU CASKIN2 (11723855_a_at) / Fold change /veh CASKIN2 (11723855_a_at) / RFU LOC730098 (11760151_x_at) / Fold change /veh LOC730098 (11760151_x_at) / RFU OR4N2 (11742367_at) / Fold change /veh OR4N2 (11742367_at) / RFU PRRT2 (11749266_a_at) / Fold change /veh PRRT2 (11749266_a_at) / RFU SNX32 (11753110_a_at) / Fold change /veh SNX32 (11753110_a_at) / RFU CDHR5 (11726645_a_at) / Fold change /veh CDHR5 (11726645_a_at) / RFU RCAN1 (11760418_a_at) / Fold change /veh RCAN1 (11760418_a_at) / RFU FAM167A (11723789_a_at) / Fold change /veh FAM167A (11723789_a_at) / RFU FAM26E (11764081_at) / Fold change /veh FAM26E (11764081_at) / RFU ISYNA1 (11749810_s_at) / Fold change /veh ISYNA1 (11749810_s_at) / RFU ACY1 (11761880_at) / Fold change /veh ACY1 (11761880_at) / RFU 11764098_at / Fold change /veh 11764098_at / RFU SAMD14 (11745864_x_at) / Fold change /veh SAMD14 (11745864_x_at) / RFU NPB (11741838_a_at) / Fold change /veh NPB (11741838_a_at) / RFU TMPRSS6 (11731388_a_at) / Fold change /veh TMPRSS6 (11731388_a_at) / RFU KRTAP10-2 (11738614_at) / Fold change /veh KRTAP10-2 (11738614_at) / RFU ARHGAP8 /// PRR5-ARHGAP8 (11727945_x_at) / Fold change /veh ARHGAP8 /// PRR5-ARHGAP8 (11727945_x_at) / RFU KRTAP5-7 /// NADSYN1 (11734609_at) / Fold change /veh KRTAP5-7 /// NADSYN1 (11734609_at) / RFU RASL12 (11751679_a_at) / Fold change /veh RASL12 (11751679_a_at) / RFU CDKN2B (11736163_a_at) / Fold change /veh CDKN2B (11736163_a_at) / RFU PRF1 (11729649_at) / Fold change /veh PRF1 (11729649_at) / RFU, ZNF638 /// ZNF638-IT1 / Fold change vs veh, ZNF638 /// ZNF638-IT1 / RFU, PANK3 / Fold change vs veh, PANK3 / RFU, SH3YL1 / Fold change vs veh, SH3YL1 / RFU, ZEB2 / Fold change vs veh, ZEB2 / RFU, NRIP1 / Fold change vs veh, NRIP1 / RFU, PTTG1IP / Fold change vs veh, PTTG1IP / RFU, CAPN2 / Fold change vs veh, CAPN2 / RFU, MED14 / Fold change vs veh, MED14 / RFU, SNORA58 / Fold change vs veh, SNORA58 / RFU, C1orf63 / Fold change vs veh, C1orf63 / RFU, LRRFIP1 / Fold change vs veh, LRRFIP1 / RFU, NDUFAF7 / Fold change vs veh, NDUFAF7 / RFU, SLC12A2 / Fold change vs veh, SLC12A2 / RFU, IBTK / Fold change vs veh, IBTK / RFU, ESF1 / Fold change vs veh, ESF1 / Fold change vs veh, TMEM50B / RFU, TAOK1 / Fold change vs veh, TAOK1 / RFU, ACBD3 / Fold change vs veh, ACBD3 / RFU, TMA16 / Fold change vs veh, TMA16 / RFU, RWDD3 / Fold change vs veh, RWDD3 / RFU, BCAT1 / Fold change vs veh, BCAT1 / RFU, EDEM3 / Fold change vs veh, EDEM3 / RFU, TMEM33 / Fold change vs veh, TMEM33 / RFU, WDR75 / Fold change vs veh, WDR75 / RFU, AHCTF1 / Fold change vs veh, AHCTF1 / RFU, TFRC / Fold change vs veh, TFRC / RFU, ZDHHC17 / Fold change vs veh, ZDHHC17 / RFU, NOM1 / Fold change vs veh, NOM1 / RFU, ARL8B / Fold change vs veh, ARL8B / RFU, ZBTB11 / Fold change vs veh, ZBTB11 / RFU, TAMM41 / Fold change vs veh, TAMM41 / RFU, KIAA1704 /// LOC100996395 / Fold change vs veh, KIAA1704 /// LOC100996395 / RFU, ING1 / Fold change vs veh, ING1 / RFU, TRMT61B / Fold change vs veh, TRMT61B / RFU, FUBP3 / Fold change vs veh, FUBP3 / RFU, TP53 / Fold change vs veh, TP53 / RFU, TNKS2 / Fold change vs veh, TNKS2 / RFU, ZFP14 / Fold change vs veh, ZFP14 / RFU, ACTR2 / Fold change vs veh, ACTR2 / RFU, PPP3R1 / Fold change vs veh, PPP3R1 / RFU, PIK3R1 / Fold change vs veh, PIK3R1 / RFU, HNRNPA1 / Fold change vs veh, HNRNPA1 / RFU, RNF170 / Fold change vs veh, RNF170 / RFU, ZNF28 / Fold change vs veh, ZNF28 / RFU, RNGTT / Fold change vs veh, RNGTT / RFU, OGT / Fold change vs veh, OGT / RFU, BRD1 / Fold change vs veh, BRD1 / RFU, MARS / Fold change vs veh, MARS / RFU, ZNF655 / Fold change vs veh, ZNF655 / RFU, FAHD1 / Fold change vs veh, FAHD1 / RFU, BDP1 / Fold change vs veh, BDP1 / RFU, LRRCC1 / Fold change vs veh, LRRCC1 / RFU, ARID1A / Fold change vs veh, ARID1A / RFU, ZNF146 / Fold change vs veh, ZNF146 / RFU, ZNF330 / Fold change vs veh, ZNF330 / RFU, GPN3 / Fold change vs veh, GPN3 / RFU, C9orf123 / Fold change vs veh, C9orf123 / RFU, N4BP2L2 / Fold change vs veh, N4BP2L2 / RFU, ARFIP1 / Fold change vs veh, ARFIP1 / RFU, FAM179B / Fold change vs veh, FAM179B / RFU, BCL10 / Fold change vs veh, BCL10 / RFU, UHRF1BP1L / Fold change vs veh, UHRF1BP1L / RFU, BET1 / Fold change vs veh, BET1 / RFU, CNOT2 / Fold change vs veh, CNOT2 / RFU, ZNF268 / Fold change vs veh, ZNF268 / Fold change vs veh, ZNF507 / RFU, DGCR2 / Fold change vs veh, DGCR2 / RFU, WDSUB1 / Fold change vs veh, WDSUB1 / Fold change vs veh, HSP90B1 /// MIR3652 / RFU, ADSS / Fold change vs veh, ADSS / RFU, GK / Fold change vs veh, GK / RFU, ZNF148 / Fold change vs veh, ZNF148 / RFU, TAF9 / Fold change vs veh, TAF9 / RFU, SLC1A5 / Fold change vs veh, SLC1A5 / RFU, SLMO2 / Fold change vs veh, SLMO2 / RFU, ABCC4 / Fold change vs veh, ABCC4 / RFU, LOC101060439 /// RAP1B / Fold change vs veh, LOC101060439 /// RAP1B / RFU, RFX7 / Fold change vs veh, RFX7 / RFU, GTPBP10 / Fold change vs veh, GTPBP10 / RFU, CNEP1R1 / Fold change vs veh, CNEP1R1 / RFU, BIVM-ERCC5 /// ERCC5 / Fold change vs veh, BIVM-ERCC5 /// ERCC5 / RFU, ILF3 / Fold change vs veh, ILF3 / RFU 11762660_at / Fold change /veh 11762660_at / RFU VCAN (11757783_s_at) / Fold change /veh VCAN (11757783_s_at) / RFU DDX43 (11728927_at) / Fold change /veh DDX43 (11728927_at) / RFU KRT8 (11758188_x_at) / Fold change /veh KRT8 (11758188_x_at) / RFU NKD1 (11759106_at) / Fold change /veh NKD1 (11759106_at) / RFU SRD5A1 (11742802_a_at) / Fold change /veh SRD5A1 (11742802_a_at) / RFU TPSAB1 /// TPSB2 (11721975_s_at) / Fold change /veh TPSAB1 /// TPSB2 (11721975_s_at) / RFU GSTM3 (11746129_a_at) / Fold change /veh GSTM3 (11746129_a_at) / RFU IL23R (11737362_x_at) / Fold change /veh IL23R (11737362_x_at) / RFU TMEM51 (11727254_a_at) / Fold change /veh TMEM51 (11727254_a_at) / RFU PIWIL2 (11732686_x_at) / Fold change /veh PIWIL2 (11732686_x_at) / RFU ORM1 (11744905_x_at) / Fold change /veh ORM1 (11744905_x_at) / RFU CCDC152 (11743942_at) / Fold change /veh CCDC152 (11743942_at) / RFU ECM1 (11717891_a_at) / Fold change /veh ECM1 (11717891_a_at) / RFU IL23R (11748794_a_at) / Fold change /veh IL23R (11748794_a_at) / RFU TNFAIP8L3 (11732012_x_at) / Fold change /veh TNFAIP8L3 (11732012_x_at) / RFU MBOAT4 (11741988_at) / Fold change /veh MBOAT4 (11741988_at) / RFU 11764193_at / Fold change /veh 11764193_at / RFU TMEM53 (11763286_at) / Fold change /veh TMEM53 (11763286_at) / RFU MAGEB2 (11727129_at) / Fold change /veh MAGEB2 (11727129_at) / RFU TMEM200A (11744735_a_at) / Fold change /veh TMEM200A (11744735_a_at) / RFU CCDC152 (11751479_a_at) / Fold change /veh CCDC152 (11751479_a_at) / RFU FAM211A (11726209_a_at) / Fold change /veh FAM211A (11726209_a_at) / RFU RGS16 (11746705_a_at) / Fold change /veh RGS16 (11746705_a_at) / RFU VCAN (11755009_s_at) / Fold change /veh VCAN (11755009_s_at) / RFU RHOB (11743442_s_at) / Fold change /veh RHOB (11743442_s_at) / RFU RGS16 (11720943_a_at) / Fold change /veh RGS16 (11720943_a_at) / RFU RGS16 (11720944_at) / Fold change /veh RGS16 (11720944_at) / RFU, VPS4B / Fold change vs veh, VPS4B / RFU, CREB1 / Fold change vs veh, CREB1 / RFU, DNAJC13 / Fold change vs veh, DNAJC13 / RFU, GNAQ / Fold change vs veh, GNAQ / RFU, CDK5R1 / Fold change vs veh, CDK5R1 / RFU, ZRANB3 / Fold change vs veh, ZRANB3 / RFU, CUL4A / Fold change vs veh, CUL4A / RFU, CCNY / Fold change vs veh, CCNY / RFU, UFL1 / Fold change vs veh, UFL1 / RFU, COG3 / Fold change vs veh, COG3 / RFU, DIAPH2 / Fold change vs veh, DIAPH2 / RFU, SKA2 / Fold change vs veh, SKA2 / RFU, AFF3 / Fold change vs veh, AFF3 / RFU, LMF1 / Fold change vs veh, LMF1 / RFU, IPO11 / Fold change vs veh, IPO11 / RFU, DFFB / Fold change vs veh, DFFB / RFU, FOXP1 / Fold change vs veh, FOXP1 / RFU, CARD8 / Fold change vs veh, CARD8 / RFU, STRN3 / Fold change vs veh, STRN3 / RFU, ADK / Fold change vs veh, ADK / RFU, RASSF2 / Fold change vs veh, RASSF2 / RFU, WIPF1 / Fold change vs veh, WIPF1 / RFU, LARP1B / Fold change vs veh, LARP1B / RFU, RASA1 / Fold change vs veh, RASA1 / RFU, RB1 / Fold change vs veh, RB1 / RFU, PPFIA1 / Fold change vs veh, PPFIA1 / RFU, MAT2A / Fold change vs veh, MAT2A / RFU, CCT5 / Fold change vs veh, CCT5 / RFU, WDR92 / Fold change vs veh, WDR92 / RFU, CUX1 / Fold change vs veh, CUX1 / RFU, TTC7A / Fold change vs veh, TTC7A / RFU, TMEM135 / Fold change vs veh, TMEM135 / RFU, DEPTOR / Fold change vs veh, DEPTOR / RFU, CPM / Fold change vs veh, CPM / RFU, DNAJB6 / Fold change vs veh, DNAJB6 / RFU, CACNA2D3 / Fold change vs veh, CACNA2D3 / RFU, DTX4 / Fold change vs veh, DTX4 / RFU, TFCP2 / Fold change vs veh, TFCP2 / RFU, GMCL1 /// GMCL1P1 / Fold change vs veh, GMCL1 /// GMCL1P1 / RFU, AEBP2 / Fold change vs veh, AEBP2 / RFU, SNHG1 /// SNORD22 /// SNORD25 /// SNORD26 /// SNORD27 /// SNORD28 /// SNORD29 /// SNORD31 / Fold change vs veh, SNHG1 /// SNORD22 /// SNORD25 /// SNORD26 /// SNORD27 /// SNORD28 /// SNORD29 /// SNORD31 / Fold change (Aza/veh), C12orf56 (ProbeSet 11735607_a_at) / Fold change (ACY-1035/veh), C12orf56 (ProbeSet 11735607_a_at) / Fold change (Aza/veh), FGFR1OP (ProbeSet 11751329_s_at) / Fold change (ACY-1035/veh), FGFR1OP (ProbeSet 11751329_s_at) / Fold change (Aza/veh), VPS36 (ProbeSet 11739960_a_at) / Fold change (ACY-1035/veh), VPS36 (ProbeSet 11739960_a_at) / RFU SYPL1 (11715823_x_at) / Fold change /veh SYPL1 (11715823_x_at) / RFU IGFBP7 (11715501_s_at) / Fold change /veh IGFBP7 (11715501_s_at) / RFU REEP3 (11722064_at) / Fold change /veh REEP3 (11722064_at) / RFU IGLL1 (11728026_x_at) / Fold change /veh IGLL1 (11728026_x_at): dose or concentration left out as unconfirmed
Details: MV-4-11 cells, 48 hours

With `Nc1ccc(-c2cccs2)cc1NC(=O)c1ccc2c(c1)cc(C1CC1)n2CCN1CCOCC1` [ACY-1035] the “RFU IRGQ (11745062_a_at)” value was 18.74 RFU.
